ChEMBL document CHEMBL4043166, “Triazole tethered isatin-coumarin based molecular hybrids as novel antitubulin agents: Design, synthesis, biological investigation and docking studies” (Bioorg Med Chem Lett, 2017)
Activity calls are given as the source filed them. The calls are words filed in the database; no cut-off is given here.

Assays:
HCT-116 [1] = experiment: Cytotoxicity against human HCT116 cells assessed as growth inhibition at 50 uM after 48 hrs by SRB assay relative to control; type: functional; conditions: HCT-116, 48 h, read-out: GI
COLO 205 [2] = experiment: Cytotoxicity against human COLO205 cells assessed as growth inhibition at 50 uM after 48 hrs by SRB assay relative to control; type: functional; conditions: COLO 205, 48 h, read-out: GI
THP-1 [3] = experiment: Cytotoxicity against human THP1 cells assessed as growth inhibition at 50 uM after 48 hrs by SRB assay relative to control; type: functional; conditions: THP-1, 48 h, read-out: GI
PC-3 = experiment: Cytotoxicity against human PC3 cells assessed as growth inhibition at 50 uM after 48 hrs by SRB assay relative to control; type: functional; conditions: PC-3, 48 h, read-out: GI
THP-1 [4] = experiment: Cytotoxicity against human THP1 cells assessed as cell growth inhibition after 48 hrs by SRB assay; type: functional, cell-based; conditions: THP-1, 48 h
COLO 205 [5] = experiment: Cytotoxicity against human COLO205 cells assessed as cell growth inhibition after 48 hrs by SRB assay; type: functional, cell-based; conditions: COLO 205, 48 h
HCT-116 [6] = experiment: Cytotoxicity against human HCT116 cells assessed as cell growth inhibition after 48 hrs by SRB assay; type: functional, cell-based; conditions: HCT-116, 48 h
Homo sapiens [7] = species on record: Homo sapiens; experiment: Inhibition of tubulin polymerization in human THP1 cells assessed as disrupted microtubule formation at 1 uM after 48 hrs by confocal microscopic analysis; type: cell-based
[8] = Inhibition of tubulin (unknown origin) polymerization; parameters: species or system Homo sapiens
Homo sapiens [9] = species on record: Homo sapiens; experiment: Inhibition of tubulin polymerization in human THP1 cells assessed as disrupted microtubule formation at 5 uM after 48 hrs by confocal microscopic analysis; type: cell-based

Structure (SMILES)	inhibition of growth at 50 µM (HCT-116 [1]) [%]	inhibition of growth at 50 µM (COLO 205 [2]) [%]	inhibition of growth at 50 µM (THP-1 [3]) [%]	inhibition of growth at 50 µM (PC-3) [%]	IC50 (THP-1 [4]) [µM]	IC50 (COLO 205 [5]) [µM]	IC50 (HCT-116 [6]) [µM]	inhibition (Homo sapiens [7])	IC50 [8] [µM]	inhibition (Homo sapiens [9])
O=C1C(=O)N(CCCCn2cc(COc3cc(=O)oc4ccccc34)nn2)c2ccccc21	72	68	85	19	5.12	7.67	8.05	–	–	–
O=C1C(=O)N(CCn2cc(COc3cc(=O)oc4ccccc34)nn2)c2ccc([N+](=O)[O-])cc21	68	59	71	15	8.57	13	9.54	–	–	–
O=C1C(=O)N(CCCCCn2cc(COc3cc(=O)oc4ccccc34)nn2)c2ccc(F)cc21	59	56	63	–	–	–	–	–	–	–
CC(=O)O[C@H]1C(=O)[C@@]2(C)[C@H]([C@H](OC(=O)c3ccccc3)[C@]3(O)C[C@H](OC(=O)[C@H](O)[C@@H](NC(=O)c4ccccc4)c4ccccc4)C(C)=C1C3(C)C)[C@]1(OC(C)=O)CO[C@@H]1C[C@@H]2O	–	–	–	–	–	–	–	Active	–	–
O=C1C(=O)N(CCCn2cc(COc3cc(=O)oc4ccccc34)nn2)c2ccc(I)cc21	65	56	67	14	–	–	–	–	–	–
COc1ccc2c(c1)C(=O)C(=O)N2CCCCn1cc(COc2cc(=O)oc3ccccc23)nn1	48	41	52	–	–	–	–	–	–	–
COc1ccc2c(c1)C(=O)C(=O)N2CCn1cc(COc2cc(=O)oc3ccccc23)nn1	65	53	68	14	–	–	–	–	–	–
O=C1C(=O)N(CCn2cc(COc3cc(=O)oc4ccccc34)nn2)c2ccc(F)cc21	80	76	92	26	1.99	6.67	5.41	–	3.55	–
COc1ccc2c(c1)C(=O)C(=O)N2CCCCCn1cc(COc2cc(=O)oc3ccccc23)nn1	25	19	30	–	–	–	–	–	–	–
O=C1C(=O)N(CCCCCn2cc(COc3cc(=O)oc4ccccc34)nn2)c2ccc([N+](=O)[O-])cc21	29	23	37	–	–	–	–	–	–	–
O=C1C(=O)N(CCCCn2cc(COc3cc(=O)oc4ccccc34)nn2)c2ccc(Cl)cc21	62	60	71	14	7.56	13.1	12.8	–	–	–
O=C1C(=O)N(CCCCCn2cc(COc3cc(=O)oc4ccccc34)nn2)c2ccc(Br)cc21	43	39	52	–	–	–	–	–	–	–
O=C1C(=O)N(CCCCCn2cc(COc3cc(=O)oc4ccccc34)nn2)c2ccc(I)cc21	36	30	45	–	–	–	–	–	–	–
O=C1C(=O)N(CCn2cc(COc3cc(=O)oc4ccccc34)nn2)c2ccc(I)cc21	70	62	74	17	7.01	12	8.99	–	–	–
O=C1C(=O)N(CCCn2cc(COc3cc(=O)oc4ccccc34)nn2)c2ccccc21	79	75	93	25	5.03	5.71	5.18	–	6.32	–
O=C1C(=O)N(CCCCn2cc(COc3cc(=O)oc4ccccc34)nn2)c2ccc(I)cc21	57	50	59	10	–	–	–	–	–	–
O=C1C(=O)N(CCCn2cc(COc3cc(=O)oc4ccccc34)nn2)c2ccc(F)cc21	75	69	86	20	5.76	8.88	7.26	–	–	–
O=C1C(=O)N(CCn2cc(COc3cc(=O)oc4ccccc34)nn2)c2ccc(Br)cc21	72	65	80	21	6.43	10.5	8.09	–	–	–
O=C1C(=O)N(CCn2cc(COc3cc(=O)oc4ccccc34)nn2)c2ccc(Cl)cc21	70	76	87	22	5.47	8.87	5.77	–	–	–
O=C1C(=O)N(CCCCn2cc(COc3cc(=O)oc4ccccc34)nn2)c2ccc(Br)cc21	59	56	63	13	–	–	–	–	–	–
O=C1C(=O)N(CCCn2cc(COc3cc(=O)oc4ccccc34)nn2)c2ccc(Br)cc21	66	61	72	14	7.14	13	11.5	–	–	–
O=C1C(=O)N(CCCCn2cc(COc3cc(=O)oc4ccccc34)nn2)c2ccc(F)cc21	67	64	77	17	7.1	9.11	10.4	–	–	–
COc1ccc2c(c1)C(=O)C(=O)N2CCCn1cc(COc2cc(=O)oc3ccccc23)nn1	52	48	56	9	–	–	–	–	–	–
O=C1C(=O)N(CCCCCn2cc(COc3cc(=O)oc4ccccc34)nn2)c2ccc(Cl)cc21	52	48	59	–	–	–	–	–	–	–
O=C1C(=O)N(CCCn2cc(COc3cc(=O)oc4ccccc34)nn2)c2ccc(Cl)cc21	68	67	78	18	6.99	10.7	9.66	–	–	–
O=C1C(=O)N(CCCCCn2cc(COc3cc(=O)oc4ccccc34)nn2)c2ccccc21	65	62	69	9	–	–	–	–	–	–
O=C1C(=O)N(CCn2cc(COc3cc(=O)oc4ccccc34)nn2)c2ccccc21	87	80	98	28	0.73	3.45	3.04	–	1.06	Active
O=C1C(=O)N(CCCn2cc(COc3cc(=O)oc4ccccc34)nn2)c2ccc([N+](=O)[O-])cc21	60	52	60	12	–	–	–	–	–	–
O=C1C(=O)N(CCCCn2cc(COc3cc(=O)oc4ccccc34)nn2)c2ccc([N+](=O)[O-])cc21	53	45	55	8	–	–	–	–	–	–
